Assay results from patent publication US9078856B2, “Improving efficacy of cancer therapy” (CHILDREN'S MEDICAL CENTER CORPORATION, priority 2010, dated 2015).

Assays:
TRPV4 = target: T1, TRPV4 (Mus musculus, UniProt Q9EPK8); test: Calcium influx in Fluo-4 loaded normal and tumor endothelial cells in response to TRPV4 activator; assay type: cell-based; details: Fluo-4 loaded cells
T1 construct: normal EC that were isolated from the dermis (MDEC cells) of TRAMP mice were used instead; endogenous in cells; host or cells: tumor endothelial cells (TEC) from TRAMP mouse prostate adenocarcinoma; normal EC (MDEC) from TRAMP mouse dermis
Text: Cell Culture. Tumor endothelial cells (EC) cells were isolated from transgenic TRAMP mice bearing prostate adenocarcinoma. Because it is difficult to obtain sufficient quantities of EC cells from the normal mouse prostate (due to its small size), normal EC that were isolated from the dermis (MDEC cells) of TRAMP mice were used instead. Normal EC cells from human dermis (HDEC cells; Cambrex) and an established mouse pancreatic EC cell line (MS1-EC cells; gift of Judah Folkman) served as independent non-tumor EC cell controls. […]
(§1) EC cells adherent to the flexible substrates were loaded with Fluo-4/AM (1 μM) for 30 min, washed 3 times in calcium medium (136 mM NaCl, 4.7 mM KCl, 1.2 mM MgSO4, 1.1 mM CaCl2, 1.2 mM KH2PO4, 5 mM NaHCO3, 5.5 mM glucose, and 20 mM Hepes. pH 7.4) and then exposed to mechanical strain (15% elongation) for 3-4 sec using a Stage Flexer (FLEXCELL® International) apparatus that is fixed on a Nikon upright microscope equipped with CCD camera (Spot-RT slider, Diagnostics Corp, USA). Images were acquired for every 4 seconds and analyzed using IP lab software and Microsoft Excel as described in Matthews, et al. (2006) (J. Cell Sci., 119:508-518).
To confirm whether this difference in TRPV4 expression affects TRPV4 function in these cells, the inventors measured calcium influx in Fluo-4 loaded cells in response to specific TRPV4 activator 4-α-PDD.

human TRPV4 = target: T2, human TRPV4 (Homo sapiens, UniProt Q9HBA0); test: Calcium influx in TEC transfected with human TRPV4-EGFP construct; assay type: cell-based
T2 construct: expressed in transfected cells; host or cells: mouse tumor endothelial cells (TEC) from TRAMP mice, Amaxa nucleofection
Method: as §1
Next, the inventors transfected TEC with a human TRPV4-EGFP construct and checked its ability to rescue aberrant mechanosensation of tumor EC. […] TRPV4 activator, 4-α-PDD induced almost 8 fold increase in calcium in these cells compared to EGFP alone-transfected TEC (FIG. 2A). The inventors then cultured these TRPV4-overexpressing cells on transglutamase linked gelatin gels of various stiffness (98 to 2,280 Pa) for 6 h and compared their cell spreading over time with that of EGFP-transfected TEC (control). As expected and shown in FIGS. 2B and 2C, TEC cells transfected with only EGFP attached, spread and increases their degree of spreading with the increasing gel stiffness. […]

T1 sequence (Q9EPK8 whole entry): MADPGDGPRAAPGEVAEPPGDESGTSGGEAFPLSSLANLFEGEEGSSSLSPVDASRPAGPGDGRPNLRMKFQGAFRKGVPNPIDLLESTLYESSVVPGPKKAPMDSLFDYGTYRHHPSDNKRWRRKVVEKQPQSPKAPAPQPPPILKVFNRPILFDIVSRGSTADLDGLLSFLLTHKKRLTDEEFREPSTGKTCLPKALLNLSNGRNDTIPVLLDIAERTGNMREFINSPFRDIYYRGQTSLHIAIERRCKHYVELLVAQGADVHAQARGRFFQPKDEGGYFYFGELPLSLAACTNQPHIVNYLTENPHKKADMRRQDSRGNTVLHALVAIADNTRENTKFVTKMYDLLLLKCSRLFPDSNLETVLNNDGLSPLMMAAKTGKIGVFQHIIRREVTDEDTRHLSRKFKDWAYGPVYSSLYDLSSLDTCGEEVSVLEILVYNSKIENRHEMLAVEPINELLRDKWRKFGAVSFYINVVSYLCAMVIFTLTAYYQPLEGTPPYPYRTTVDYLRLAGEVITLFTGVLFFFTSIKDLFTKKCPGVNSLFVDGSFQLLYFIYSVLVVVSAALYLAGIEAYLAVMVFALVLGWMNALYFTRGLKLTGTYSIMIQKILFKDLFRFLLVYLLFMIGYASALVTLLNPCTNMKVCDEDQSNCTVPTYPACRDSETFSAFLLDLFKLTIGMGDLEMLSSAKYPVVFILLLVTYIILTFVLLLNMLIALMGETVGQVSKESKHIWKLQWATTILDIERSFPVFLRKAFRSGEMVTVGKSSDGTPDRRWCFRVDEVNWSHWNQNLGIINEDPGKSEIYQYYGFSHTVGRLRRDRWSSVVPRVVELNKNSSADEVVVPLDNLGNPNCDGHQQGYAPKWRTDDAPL
T2 sequence (Q9HBA0 whole entry): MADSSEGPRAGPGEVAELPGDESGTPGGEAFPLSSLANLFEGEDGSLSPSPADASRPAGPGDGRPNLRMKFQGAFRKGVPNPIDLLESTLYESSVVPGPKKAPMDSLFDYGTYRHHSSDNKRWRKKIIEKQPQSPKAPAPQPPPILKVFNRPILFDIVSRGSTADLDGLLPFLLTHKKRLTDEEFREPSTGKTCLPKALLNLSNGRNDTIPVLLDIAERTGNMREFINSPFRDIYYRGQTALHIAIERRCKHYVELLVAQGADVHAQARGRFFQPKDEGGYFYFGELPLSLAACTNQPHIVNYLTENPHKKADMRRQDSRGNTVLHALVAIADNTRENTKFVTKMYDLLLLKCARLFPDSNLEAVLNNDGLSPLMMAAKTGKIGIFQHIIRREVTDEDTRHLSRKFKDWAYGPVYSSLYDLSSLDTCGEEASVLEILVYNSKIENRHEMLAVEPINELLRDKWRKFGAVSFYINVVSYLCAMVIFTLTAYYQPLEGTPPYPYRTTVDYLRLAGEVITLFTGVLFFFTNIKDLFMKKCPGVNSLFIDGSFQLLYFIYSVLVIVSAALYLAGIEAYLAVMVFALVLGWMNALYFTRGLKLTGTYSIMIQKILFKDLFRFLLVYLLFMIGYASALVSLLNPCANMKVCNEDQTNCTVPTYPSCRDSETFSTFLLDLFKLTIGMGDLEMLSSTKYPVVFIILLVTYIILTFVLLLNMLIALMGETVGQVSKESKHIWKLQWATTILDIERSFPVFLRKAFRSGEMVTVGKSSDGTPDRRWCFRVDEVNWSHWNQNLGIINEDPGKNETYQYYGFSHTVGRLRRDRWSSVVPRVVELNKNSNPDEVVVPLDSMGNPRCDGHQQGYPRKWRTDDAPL

SMILES: CCCCCCCCCC(=O)O[C@@H]1[C@@H](C)[C@@]2(O)[C@@H](C=C(CO)C[C@@]3(O)C(=O)C(C)=C[C@@H]23)[C@@H]2C(C)(C)[C@]12OC(=O)CCCCCCCCC [4-α-PDD, 4-α-phorbol 12,13-didecanoate]
- calcium influx induced in nEC (TRPV4; normal EC (nEC)): rapid robust calcium influx
- reduction of induced calcium influx in tumor EC compared with nEC (TRPV4; tumor EC vs nEC): ~40%
- increase in calcium compared to EGFP alone-transfected TEC (human TRPV4): ~8 fold
